Biological target: TBK1 (Homo sapiens (Human), UniProt Q9UHD2)
Experiment: TBK1 low ATP kinase assay (in vitro assay 1)
Type: biochemical
Conditions: in vitro assay 1, read-out: TBK1 low ATP kinase assay IC50

Chain of TBK1 (Q9UHD2 whole entry): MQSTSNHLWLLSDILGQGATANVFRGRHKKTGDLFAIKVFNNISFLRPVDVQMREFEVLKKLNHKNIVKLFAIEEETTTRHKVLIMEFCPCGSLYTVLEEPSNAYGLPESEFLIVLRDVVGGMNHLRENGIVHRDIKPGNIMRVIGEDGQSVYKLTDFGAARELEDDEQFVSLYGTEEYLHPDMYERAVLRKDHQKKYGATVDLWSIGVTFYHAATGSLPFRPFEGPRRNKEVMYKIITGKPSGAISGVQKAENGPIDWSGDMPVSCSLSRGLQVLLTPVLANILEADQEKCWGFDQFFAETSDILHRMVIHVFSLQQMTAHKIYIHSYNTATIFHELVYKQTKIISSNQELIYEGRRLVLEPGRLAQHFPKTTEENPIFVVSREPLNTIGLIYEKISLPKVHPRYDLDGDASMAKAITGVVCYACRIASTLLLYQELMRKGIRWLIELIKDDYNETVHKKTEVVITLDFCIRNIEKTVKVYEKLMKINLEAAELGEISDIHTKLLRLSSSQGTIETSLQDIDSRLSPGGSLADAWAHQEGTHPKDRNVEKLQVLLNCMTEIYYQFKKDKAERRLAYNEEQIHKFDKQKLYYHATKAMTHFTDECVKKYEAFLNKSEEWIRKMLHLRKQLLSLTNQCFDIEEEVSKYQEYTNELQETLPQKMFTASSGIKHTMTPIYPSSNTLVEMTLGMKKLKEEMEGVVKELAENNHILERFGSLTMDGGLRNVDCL

SMILES	IC50 [nM]
CCOc1c(-c2ccncc2OC)ccc2nc(Nc3cc(CN4CCN(C(=O)C5CC5)CC4)ccn3)[nH]c12 [Example 51.03, cyclopropyl{4-[(2-{[7-ethoxy-6-(3-methoxypyridin-4-yl)-1H-benzimidazol-2-yl]amino}pyridin-4-yl)methyl]piperazin-1-yl}methanone]	113
Cc1ccnc(N2CCN(Cc3ccnc(Nc4nc5ccc(-c6nc(C)no6)cc5[nH]4)c3)CC2)c1 [Example 101.30, 6-(3-methyl-1,2,4-oxadiazol-5-yl)-N-(4-{[4-(4-methylpyridin-2-yl)piperazin-1-yl]methyl}pyridin-2-yl)-1H-benzimidazol-2-amine]	560
Cc1noc(-c2ccc3nc(Nc4cc(CN5CCN(C(N)=O)CC5)ccn4)[nH]c3c2)n1 [Example 101.20, 4-[(2-{[6-(3-methyl-1,2,4-oxadiazol-5-yl)-1H-benzimidazol-2-yl]amino}pyridin-4-yl)methyl]piperazine-1-carboxamide]	560
Cc1cccc(N2CCN(Cc3ccnc(Nc4nc5ccc(-c6nc(C)no6)cc5[nH]4)c3)CC2)n1 [Example 101.19, 6-(3-methyl-1,2,4-oxadiazol-5-yl)-N-(4-{[4-(6-methylpyridin-2-yl)piperazin-1-yl]methyl}pyridin-2-yl)-1H-benzimidazol-2-amine]	340
Cc1cc(-c2ccc3nc(Nc4cc(CN5CCN(C(=O)OC(C)(C)C)CC5)ccn4)[nH]c3c2)nc(N(C)C)n1 [Example 178.01, tert-butyl 4-{[2-({6-[2-(dimethylamino)-6-methylpyrimidin-4-yl]-1H-benzimidazol-2-yl}amino)pyridin-4-yl]methyl}piperazine-1-carboxylate]	890
O=C(CC(F)(F)F)N1CCN(Cc2ccnc(Nc3nc4ccc(-c5ccnc(C(F)(F)F)n5)cc4[nH]3)c2)CC1 [Example 27.04, 3,3,3-trifluoro-1-(4-{[2-({6-[2-(trifluoromethyl)pyrimidin-4-yl]-1H-benzimidazol-2-yl}amino)pyridin-4-yl]methyl}piperazin-1-yl)propan-1-one]	197
O=C(CC1CC1)N1CCN(Cc2ccnc(Nc3nc4ccc(-c5cncnc5)cc4[nH]3)c2)CC1 [Example 45.01.02, 2-cyclopropyl-1-{4-[(2-{[6-(pyrimidin-5-yl)-1H-benzimidazol-2-yl]amino}pyridin-4-yl)methyl]piperazin-1-yl}ethanone]	397
COc1ccncc1-c1ccc2nc(Nc3cc(CN4CCN(C(=O)C5CCC5)CC4)ccn3)[nH]c2c1 [Example 14.01, cyclobutyl{4-[(2-{[6-(4-methoxypyridin-3-yl)-1H-benzimidazol-2-yl]amino}pyridin-4-yl)methyl]piperazin-1-yl}methanone]	195
COc1ccc(-c2ccc3nc(Nc4cc(CN5CCN(C(=O)C6CC6)CC5)ccn4)[nH]c3c2)cn1 [Example 13.02, cyclopropyl{4-[(2-{[6-(6-methoxypyridin-3-yl)-1H-benzimidazol-2-yl]amino}pyridin-4-yl)methyl]piperazin-1-yl}methanone]	166
Cc1cc(-c2ccc3nc(Nc4cc(CN5CCN(C(=O)C6CCC6)CC5)ccn4)[nH]c3c2)ccn1 [Example 01.05, cyclobutyl{4-[(2-{[6-(2-methylpyridin-4-yl)-1H-benzimidazol-2-yl]amino}pyridin-4-yl)methyl]piperazin-1-yl}methanone]	70.9
CC(C)Oc1cc(-c2ccc3nc(Nc4cc(CN5CCN(C(=O)OC(C)(C)C)CC5)ccn4)[nH]c3c2)ncn1 [Example 160.01, tert-butyl 4-{[2-({6-[6-(propan-2-yloxy)pyrimidin-4-yl]-1H-benzimidazol-2-yl}amino)pyridin-4-yl]methyl}piperazine-1-carboxylate]	64
Cn1ccc(-c2ccc3nc(Nc4cc(CN5CCN(C(=O)CC6CC6)CC5)ccn4)[nH]c3c2)n1 [Example 40.02, 2-cyclopropyl-1-{4-[(2-{[6-(1-methyl-1H-pyrazol-3-yl)-1H-benzimidazol-2-yl]amino}pyridin-4-yl)methyl]piperazin-1-yl}ethanone]	1270

These reach a lower IC50. Values come first.

IC50 [nM]	SMILES
50.1	COc1cc(-c2ccc3nc(Nc4cc(C(C)N5CCN(C(=O)CC(F)(F)F)CC5)ccn4)[nH]c3c2)ncn1 (single isomer, unassigned) [Example 34.03.01.B, 3,3,3-trifluoro-1-{4-[(1S or 1R)-1-(2-{[6-(6-methoxypyrimidin-4-yl)-1H-benzimidazol-2-yl]amino}pyridin-4-yl)ethyl]piperazin-1-yl}propan-1-one]
46	CC(c1ccnc(Nc2nc3ccc(-c4cnn(CC5CC5(C)C)c4)cc3[nH]2)c1)N1CCN(C(=O)OC(C)(C)C)CC1 (single isomer, unassigned) [Example 67.01, tert-butyl 4-[(1R or 1S)-1-(2-{[6-(1-{[(1RS)-2,2-dimethylcyclopropyl]methyl}-1H-pyrazol-4-yl)-1H-benzimidazol-2-yl]amino}pyridin-4-yl)ethyl]piperazine-1-carboxylate]
33.9	Cc1nccc(-c2ccc3nc(Nc4cc(C(C)N5CCN(C(=O)C6CC6)CC5)ccn4)[nH]c3c2)n1 (single isomer, unassigned) [Example 24.05.04.B, cyclopropyl{4-[(1S or 1R)-1-(2-{[6-(2-methylpyrimidin-4-yl)-1H-benzimidazol-2-yl]amino}pyridin-4-yl)ethyl]piperazin-1-yl}methanone]
30	CN(C)c1cc(-c2ccc3nc(Nc4cc(CN5CCN(C(=O)C6CC6)CC5)ccn4)[nH]c3c2)ccn1 [Example 135.03, cyclopropyl(4-{[2-({6-[2-(dimethylamino)pyridin-4-yl]-1H-benzimidazol-2-yl}amino)pyridin-4-yl]methyl}piperazin-1-yl)methanone]
21.7	Cc1noc(-c2ccc3nc(Nc4cc(C(C)N5CCN(C(=O)C6(C(F)(F)F)CC6)CC5)ccn4)[nH]c3c2)n1 (single isomer, unassigned) [Example 16.06.04, {4-[(1R or 1S)-1-(2-{[6-(3-methyl-1,2,4-oxadiazol-5-yl)-1H-benzimidazol-2-yl]amino}pyridin-4-yl)ethyl]piperazin-1-yl}[1-(trifluoromethyl)cyclopropyl]methanone]
19.7	COc1c(C)ncnc1-c1ccc2nc(Nc3cc(CN4CCN(C(=O)CC(F)(F)F)CC4)ccn3)[nH]c2c1 [Example 61.01.01, 3,3,3-trifluoro-1-{4-[(2-{[6-(5-methoxy-6-methylpyrimidin-4-yl)-1H-benzimidazol-2-yl]amino}pyridin-4-yl)methyl]piperazin-1-yl}propan-1-one]
9.8	CN(CC(F)(F)F)c1cc(-c2ccc3nc(Nc4cc(CN5CCN(C(=O)CC(F)(F)F)CC5)ccn4)[nH]c3c2)ncn1 [Example 146.02, 3,3,3-trifluoro-1-[4-({2-[(6-{6-[methyl(2,2,2-trifluoroethyl)amino]pyrimidin-4-yl}-1H-benzimidazol-2-yl)amino]pyridin-4-yl}methyl)piperazin-1-yl]propan-1-one]
9.4	O=C(C1CC1)N1CCN(Cc2ccnc(Nc3nc4ccc(-c5cc(C6CC6)ncn5)cc4[nH]3)c2)CC1 [Example 76.02, cyclopropyl{4-[(2-{[6-(6-cyclopropylpyrimidin-4-yl)-1H-benzimidazol-2-yl]amino}pyridin-4-yl)methyl]piperazin-1-yl}methanone]
9.19	Cc1nccc(-c2ccc3nc(Nc4cc(C(C)N5CCN(C(=O)C6CC6)CC5)ccn4)[nH]c3c2)n1 (racemic) [Example 24.04.01, (rac)-cyclopropyl{4-[1-(2-{[6-(2-methylpyrimidin-4-yl)-1H-benzimidazol-2-yl]amino}pyridin-4-yl)ethyl]piperazin-1-yl}methanone]
6.46	CC(c1ccnc(Nc2nc3ccc(-c4cc(N(C)CC5CC5)ncn4)cc3[nH]2)c1)N1CCN(C(=O)C2(C(F)(F)F)CC2)CC1 (single isomer, unassigned) [Example 197.04, {4-[(1R or 1S)-1-{2-[(6-{6-[(cyclopropylmethyl)(methyl)amino]pyrimidin-4-yl}-1H-benzimidazol-2-yl)amino]pyridin-4-yl}ethyl]piperazin-1-yl}[1-(trifluoromethyl)cyclopropyl]methanone]
5.4	COc1c(-c2ccc3nc(Nc4cc(C(C)N5CCN(C(=O)CC(F)(F)F)CC5)ccn4)[nH]c3c2)ncnc1N(C)C (single isomer, unassigned) [Example 107.02.03, 1-(4-{(1R or 1S)-1-[2-({6-[6-(dimethylamino)-5-methoxypyrimidin-4-yl]-1H-benzimidazol-2-yl}amino)pyridin-4-yl]ethyl}piperazin-1-yl)-3,3,3-trifluoropropan-1-one]
3.9	O=C(CC(F)(F)F)N1CCN(Cc2ccnc(Nc3nc4ccc(-c5nnc(CC6CCC6)o5)cc4[nH]3)c2)CC1 [Example 126.02, 1-(4-{[2-({6-[5-(cyclobutylmethyl)-1,3,4-oxadiazol-2-yl]-1H-benzimidazol-2-yl}amino)pyridin-4-yl]methyl}piperazin-1-yl)-3,3,3-trifluoropropan-1-one]
3.3	CC(C)Nc1cc(-c2ccc3nc(Nc4cc(CN5CCN(C(=O)CC(F)(F)F)CC5)ccn4)[nH]c3c2)ncn1 [Example 154.02, 3,3,3-trifluoro-1-(4-{[2-({6-[6-(propan-2-ylamino)pyrimidin-4-yl]-1H-benzimidazol-2-yl}amino)pyridin-4-yl]methyl}piperazin-1-yl)propan-1-one]
3	O=C(C1CC1)N1CCN(Cc2ccnc(Nc3nc4ccc(-c5cc(NCC6CC6)ncn5)cc4[nH]3)c2)CC1 [Example 142.03, cyclopropyl[4-({2-[(6-{6-[(cyclopropylmethyl)amino]pyrimidin-4-yl}-1H-benzimidazol-2-yl)amino]pyridin-4-yl}methyl)piperazin-1-yl]methanone]
1.71	CC(c1ccnc(Nc2nc3ccc(-c4cc(OCC(C)(F)F)ncn4)cc3[nH]2)c1)N1CCN(C(=O)CC(F)(F)F)CC1 (single isomer, unassigned) [Example 165.02, 1-(4-{(1R or 1S)-1-[2-({6-[6-(2,2-difluoropropoxy)pyrimidin-4-yl]-1H-benzimidazol-2-yl}amino)pyridin-4-yl]ethyl}piperazin-1-yl)-3,3,3-trifluoropropan-1-one]

Reference: patent US10894784B2, “Heteroarylbenzimidazole compounds” (BAYER PHARMA AKTIENGESELLSCHAFT, priority 2015, dated 2021)
